Test results: patent US8772349B2, “Cannabinoid quinone derivatives” (Vivacell Biotechnology Espana, S.L., priority 2010, dated 2014)

Experiments:
[1] = MTT cytotoxicity assay, HeLa; details: human
Description: (§1) All cellular lines were grown at 37° C. and 5% CO2 in supplemented Dulbecco's modified Eagle's medium (DMEM) (Cambrex Co., Barcelona, Spain), containing 10% heat-inactivated fetal bovine serum (FBS) (Cambrex Co., Barcelona, Spain), 2 mM glutamine, penicillin (50 U/ml) and streptomycin (50 mg/ml).
(§2) Aliquots of cell suspensions were dispensed at 100 μl volumes into wells of 96-well tissue culture plates at a density of 10^4 cells/well. […] In each MTT assay, every concentration of the assayed substance was tested in three replicates. The inhibitory effect of the various compounds was calculated as percentage inhibition relative to cells treated with vehicle (0.5% DMSO).

[2] = MTT cytotoxicity assay, HCT116; details: human
Description: as §1, §2

[3] = MTT cytotoxicity assay, 3T3-L1; details: mouse
Description: All cellular lines were grown at 37° C. and 5% CO2 in supplemented Dulbecco's modified Eagle's medium (DMEM) (Cambrex Co., Barcelona, Spain), containing 10% heat-inactivated fetal bovine serum (FBS) (Cambrex Co., Barcelona, Spain), 2 mM glutamine, penicillin (50 U/ml) and streptomycin (50 mg/ml). […] MSC were maintained in α-MEM with 15% FBS.
as §2

[4] = MTT cytotoxicity assay, AGS; details: human
Description: as §1, §2

[5] = MTT cytotoxicity assay, MDA; details: human
Description: as §1, §2

[6] = MTT cytotoxicity assay, T47D; details: human
Description: as §1, §2

3T3-L1 fibroblasts = experiment: 3T3-L1 adipocyte differentiation assay / total triglyceride quantification
Description: The 3T3-L1 preadipocyte cell line was plated at a concentration of 2×10^5 cell/well in 6-well plates for RNA isolations and tygliceride cunatification. 3T3-L1 fibroblasts were grown until confluence (3 days) in DMEM with 10% FBS and antibiotics. Then (day 0), medium was supplemented with 1 μM dexamethasone, IBMX 0.5 mM and 10 μg/ml insulin, to induce differentiation for 2 days. In day 2, the medium was supplemented only with 5 μg/ml insulin for two more days. All mediums used were additionally supplemented with cannabinoids, or rosiglitazone (1 μM) as control, since day 0. […] For trygliceride cuantification, cells were maintained in medium supplemented with cannabinoids until day 12 and refreshed every two days. […] 3T3-L1 fully differentiated adipocytes were washed in PBS and sonicated three times for 5 seconds in a buffer containing 2 M NaCl, 2 mM EDTA and 50 mM sodium phosphate pH 7.4 to release cellular content. Total triglyceride content released was quantified using a commercial Triglyceride Assay kit (Applied BioSystem, Spain) based on a colorimetric reaction and measured by absorbance at 500 nm in a spectrophotometer.

[7] = system: T47D, human breast adenocarcinoma; experiment: MTT cytotoxicity assay, T47D; details: read-out: IC50 values of MTT cytotoxicity assay; T47D, 24 hours of treatment
Description: as §1, §2

[8] = system: adipokines gene expression (IL-6, AdipoQ); experiment: Adipocyte and adipokine gene expression by PCR in 3T3-L1 adipocytes; details: FIG. 5
Description: 3T3-L1 fibroblasts were grown until confluence (3 days) in DMEM with 10% FBS and antibiotics. Then (day 0), medium was supplemented with 1 μM dexamethasone, IBMX 0.5 mM and 10 μg/ml insulin, to induce differentiation for 2 days. In day 2, the medium was supplemented only with 5 μg/ml insulin for two more days. All mediums used were additionally supplemented with cannabinoids, or rosiglitazone (1 μM) as control, since day 0. In case of RNA extractions, cells were harvested on day 4. […] GAPDH gene was used as houskeeping gene.

3T3-L1 pre-adipocytes = experiment: Glucose uptake (2-deoxy-D-glucose transport); type: cell-based, mouse; details: FIG. 6; for glucose uptake: presence and absence of insulin (1.74 μM)
Description: For assays of 2-deoxy-D-glucose transport 3T3-L1 pre-adipocytes cultured in 12-well plates were deprived of serum by incubation for 2 hours. […] Glucose transport was initiated by the addition of 50 μl of KRH buffer containing 0.5 mM 2-deoxy-D-[1, 2-3H]glucose (0.25 μCi) to each well; after 5 minutes, transport was terminated by washing the cells 3 times with ice-cold KRH buffer. The cells were solubilized, and the incorporated radioactivity was measured by liquid scintillation counting.
Data are given as means with deviation standard error bars of three replicates. […]

[9] = system: bone-marrow derived mesenchimal cells; experiment: Mesenchymal stem cell differentiation to osteoblasts or adipocytes, marker gene expression by QRT-PCR; type: cell-based; details: human MSC, compounds in differentiation medium, FIG. 7
Description: Cells were plated at 500 cell/cm^2 on P6 plates (TPP, Trasadingen, Switzerland) containing α-MEM medium with 10% FBS. When the cell cultures were 80-90% confluent, the medium was supplemented with 10^−8 M dexamethasone, 0.2 mM ascorbic acid and 10 mM β-glycerolphosphate to induce differentiation to osteoblasts, and 5×10^−7 M dexamethasone, 0.5 mM isobutylmethylxanthine and […] indometacin to induce differentiation to adipocytes. All inducers were from Sigma-Aldrich. MSC (mesenchymal stem cells) were grown in an osteogenic or adipogenic medium for 21 days, together with a corresponding control (in the absence of differentiation inducers). Cell samples were collected at day 13. […] Expression values of nuclear ribosomal DNA were used to normalise the obtained values. Adipocyte and osteoblasts were obtained by differentiation of human mesenchymal stem cells grown in adipogenic or osteoblastogenic specific differentiation culture mediums. […] Bone forming osteoblasts and fat forming adipocytes are both derived from mesenchymal stem cells (MSCs). An increase in PPARg activity due to treatment with the antidiabetic thiazolidinedione (TZD) drug rosiglitazone results in a decreased number of osteoblasts and an increased number of adipocytes.

[10] = HeLa cells (human cervical carcinoma)
[11] = HCT116 cells (human colon carcinoma)
[12] = 3T3-L1 cells (mouse embryonic fibroblast, adipose-like)
[13] = AGS cells (human gastric adenocarcinoma)
[14] = MDA cells (human breast cancer)
[15] = T47D cells (human breast adenocarcinoma)

| SMILES | IC50 at 24 h [1, 10] | IC50 at 24 h [2, 11] | IC50 at 24 h [3, 12] | IC50 at 24 h [4, 13] | IC50 at 24 h [5, 14] | IC50 at 24 h [6, 15] | IC50 at 24 h [1] | IC50 at 24 h [2] | IC50 at 24 h [3] | IC50 at 24 h [4] | IC50 at 24 h [5] | AdipoQ gene expression [8] | IL-6 gene expression [8] | glucose uptake (3T3-L1 pre-adipocytes) | also measured |
| --- | --- | --- | --- | --- | --- | --- | --- | --- | --- | --- | --- | --- | --- | --- | --- |
| C=C(C)[C@@H]1CCC(C)=C[C@H]1c1c(O)cc(CCCCC)cc1O [CBD, cannabidiol] | > 50 µM | > 50 µM | 30 µM | 25 µM | > 50 µM | 35 µM | – | – | – | – | – | – | – | – | – |
| C=C(C)C1CCC(C)=C[C@H]1C1=C(O)C(=O)C(CCCCC)=CC1=O (some centres unmarked) [CBD-Q, CBD-Quinone] | – | – | – | – | – | – | 40.5 µM | 9.8 µM | 12 µM | 7.44 µM | 10.1 µM | – | – | – | cytotoxic effect in adipocyte differentiation assay, concentration (3T3-L1 fibroblasts; 3T3-L1, FIG. 8C, lacking bar): higher than 1 μM; IC50 at 24 h ([6]; IC50 values of MTT cytotoxicity assay, T47D, 24 hours of treatment): 20 µM; IC50 [7]: 17.1 µM |
| CCCCCc1cc(O)c(C/C=C(\C)CCC=C(C)C)c(O)c1 [CBG, cannabigerol] | > 50 µM | > 50 µM | 42.2 µM | > 50 µM | > 50 µM | 47 µM | – | – | – | – | – | increment on AdipoQ | reduction of the pro-inflammatory cytokine IL-6 | able to increment the glucosa uptake both in presence and absence of insulin | – |
| CCCCCC1=CC(=O)C(C/C=C(\C)CCC=C(C)C)=C(O)C1=O [CBG-Q, CBG Hydroxyquinone] | – | – | – | – | – | – | > 50 µM | 47 µM | 49 µM | 48 µM | 49 µM | increment on AdipoQ | reduction of the pro-inflammatory cytokine IL-6 | able to increment the glucosa uptake both in presence and absence of insulin | differentiation of fibroblasts to adipocytes (total triglyceride), in words (3T3-L1 fibroblasts; 3T3-L1, FIGS. 4 and 8C): stimulate the differentiation of fibroblasts to adipocytes in a stronger way than CBG; glucose uptake compared with CBG (3T3-L1 pre-adipocytes; absence of insulin): higher effect than CBG; IC50 at 24 h [6]: 44 µM; expression of marker genes in adipocytes and osteoblasts [9]: no significant alteration in expression of marker genes |
